# Legend:
# [1] = system: DNA duplex, enzyme-binding segment for EcoRI; test: Force-modulated drug-DNA binding determination with DNA-cleaving enzyme EcoRI (visual particle immobilization); conditions: EcoRI present; after ~1 pN force
# Excerpt: (§1) To determine the exact binding site of drugs on nucleic acids, a derived scheme contains a magnetically labeled DNA and its complementary strand, in the presence of the drug to be analyzed and a DNA-cleaving enzyme. The binding site of the drug can be precisely determined by force modulation following surface immobilization.
# (§2) FIG. 1D can be utilized to illustrate a system 100 for measuring drug-DNA binding. A magnetically labeled DNA strand 102 is hybridized with its complementary strand 104, in the presence of a drug molecule 106 and a DNA-cleaving enzyme 107. If the drug binds with the DNA specifically at the location of the enzyme, the enzyme will not be able to cleave the duplex. Consequently, the magnetic particles will be able to be immobilized on the surface via the biotin 105 on complementary strand 104, showing yellowish color in image 108(a) and being assigned as “1”. […] Thus, the magnetic particles will not be able to bind with the surface because of the absence of a functional group (such as biotin 105 shown in FIG. 1D) to interact with the matching functional group on the surface, showing as clear and being assigned as “0” in image 108(b).
# (§3) The derived scheme presented in FIG. 1D was used to precisely determine the binding sites of drug molecules. […]
# [2] = system: segment of the DNA duplex specified by DpnII; test: Dissociation force of drug-DNA binding, segment chosen by DpnII; conditions: for order of binding strength (dissociation force): DNA segment chosen by addition of DpnII, FIG. 5C red section
# Excerpt: (§6) The dissociation force can be further used to quantitatively distinguish the binding strength of different drug molecules at each and every specific nucleotide sequence. […] This segment is specifically chosen because of the addition of enzyme DpnII.
# [3] = system: DNA duplex, enzyme-binding segment for DpnII; test: Force-modulated drug-DNA binding determination with DNA-cleaving enzyme DpnII (visual particle immobilization); conditions: DpnII present; after ~1 pN force
# Excerpt: as §1, §2, §3
# [4] = system: DNA duplex, CTAG (DpnII); test: Multiplexed sample wells, ultrasound force through a piezo plate, DpnII; assay type: binding; conditions: 100 μM drug, lane 2
# Method: (§4) A shown in FIG. 7A, a new system was designed consisting of a puncher, an incubator, and a displayer. After incubating the sample, the puncher will be used to break the bottom of the incubator so the sample will be transferred to the corresponding wells on the displayer. The bottom of the displayer was functionalized, for example with streptavidin, so that magnetic particles will be able to be immobilized through a labeled DNA duplex, for example with biotin. A mechanical force is then applied on the displayer followed by final inspection and measurement.
# (§5) The samples within each lane were under identical conditions. 1: DNA duplex with 100 μM daunorubicin and DpnII; 2: DNA duplex with 100 μM netropsin and DpnII; 3: DNA duplex; 4: DNA duplex incubated with 100 μM daunomycin and EcoRI; 5: DNA duplex with 100 μM netropsin and ECoRI. After applying ultrasound through a piezo plate, only the particles in lanes 2 and […] were removed, indicating weak binding between netropsin and CTAG (lane 2), and between daunomycin and the EcoRI binding site (lane 4).
# [5] = system: segment of the DNA duplex specified by EcoRI; test: Dissociation force of drug-DNA binding, segment specified by EcoRI; conditions: FIG. 5C blue section
# Excerpt: as §6
# [6] = system: DNA; test: Laser transmission quantification of immobilized particles at different drug concentrations; assay type: binding; conditions: fitting of transmission profile vs drug concentration
# Excerpt: The detection was achieved by using a photodetector (DET100A, Thorlabs) coupled with a voltmeter. […] Fitting of the profile yielded a binding constant of 9±2×10^4 M^−1, consistent with the results using a sensitive atomic magnetometer.
# [7] = system: DNA duplex, EcoRI binding site; test: Multiplexed sample wells, ultrasound force through a piezo plate, EcoRI; conditions: 100 μM drug, lane 4
# Method: as §4, §5
# [8] = relative to doxorubicin; cited from earlier work
sequence selectivity of DNA binding ([2]; comparison of DpnII and EcoRI segments),Structure (SMILES),blocking of EcoRI on DNA duplex (particle immobilization) [1],order of binding strength (dissociation force) [2],blocking of DpnII binding site on DNA duplex (particle immobilization) [3],binding with CTAG after ultrasound [4],rank of binding strength (dissociation force) [5],binding constant [6],binding with the EcoRI binding site after ultrasound [7],toxicity in chemotherapy [8]
,Cn1cc(NC(=O)c2cc(NC(=O)CN=C(N)N)cn2C)cc1C(=O)NCCC(=N)N [netropsin],able to block EcoRI,"daunomycin, doxorubicin > epirubicin >> daunomycin >> netropsin",does not interfere with the binding of DpnII,weak binding,second strongest,,,
,COc1cccc2c1C(=O)c1c(O)c3c(c(O)c1C2=O)C[C@@](O)(C(=O)CO)C[C@@H]3O[C@H]1C[C@H](N)[C@H](O)[C@H](C)O1 [doxorubicin],,"daunomycin, doxorubicin > epirubicin >> daunomycin >> netropsin",,,,,,
,COc1cccc2c1C(=O)c1c(O)c3c(c(O)c1C2=O)C[C@@](O)(C(C)=O)C[C@@H]3O[C@H]1C[C@H](N)[C@H](O)[C@H](C)O1 [daunomycin],could not,"daunomycin, doxorubicin > epirubicin >> daunomycin >> netropsin",blocked the binding site of DpnII,,,9±2×10^4 M^−1,weak binding,
more sequence-selective than doxorubicin,COc1cccc2c1C(=O)c1c(O)c3c(c(O)c1C2=O)C[C@@](O)(C(=O)CO)C[C@@H]3O[C@H]1C[C@H](N)[C@@H](O)[C@H](C)O1 [epirubicin],,"daunomycin, doxorubicin > epirubicin >> daunomycin >> netropsin",,,,,,less toxic

# Reference: US12006542B2, “Force-modulated hybridization for visualizing nucleic acid length and function” (University of Houston System, priority 2017, dated 2024)
